We go through 16 substances from US20030032065A1, “Ensemble-based strategy for the design of protein pharmaceuticals” (priority 2001, published 2003).

Ends that are not written are not given here.

In assay [1] the target is T1, streptavidin (Streptomyces avidinii, UniProt P22629). As to conditions: peptide-streptavidin complex, experimentally observed binding constant; cited from earlier work.
Assay [2] concerns the target T1, streptavidin. The assay is classed as binding. Conditions: peptide-streptavidin complex, association constant.

T1 sequence (P22629 25-183): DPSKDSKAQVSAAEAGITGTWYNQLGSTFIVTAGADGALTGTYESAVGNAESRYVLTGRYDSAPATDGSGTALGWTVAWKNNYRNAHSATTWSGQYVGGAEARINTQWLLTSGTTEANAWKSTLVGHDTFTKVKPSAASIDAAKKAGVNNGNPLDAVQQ

For AECHPQFCIEGRK, the equilibrium dissociation constant (Kd) in assay [1] is 0.47 µM. In assay [2], the “Observed KA” value is 2.13 µM⁻¹. Consider AECHPQFNCIEGRK, for which, in assay [1], the Kd was 7 µM. In addition, in assay [2], the “Observed KA” value is 0.14 µM⁻¹. Regarding AECHPQFPCIEGRK, in assay [1], the Kd is 0.93 µM. The “Observed KA” value in assay [2] was 1.08 µM⁻¹. As to AECHPQGPPCIEGRK, in assay [1], the Kd was 0.23 µM. Besides, the “Observed KA” value in assay [2] worked out at 4.35 µM⁻¹. As to AHPQFGAEK, the dissociation constant (Kd) in assay [1] is 204 µM. Moreover, the “Observed KA” value in assay [2] worked out at 0.005 µM⁻¹. Turning to AHPQFPAEK, the Kd in assay [1] was 136 µM. For the same substance, the “Observed KA” value in assay [2] is 0.007 µM⁻¹. In the case of FSHPQNT, the “Observed KA” value in assay [2] came to 0.008 µM⁻¹. Turning to HDHPQNL, the Kd in assay [1] is 282 µM. Also, in assay [2], the “Observed KA” value came out at 0.004 µM⁻¹. Turning to RCCHPQCGMAEEC, in assay [1], the Kd was 2.3 µM. Also, the “Observed KA” value in assay [2] worked out at 0.45 µM⁻¹.

RCCHPQCGMVEEC: the Kd in assay [1] is 1.3 µM. The “Observed KA” value in assay [2] came out at 3.3 µM⁻¹. In the case of RCCHPQFEPCMGC, in assay [1], the Kd is 0.33 µM. Moreover, the “Observed KA” value in assay [2] is 3.0 µM⁻¹. Take “cyclo-(AHPQFGAE)K (AHPQFGAEK; also: cyclic, ring closure not given here)”: the Kd in assay [1] is 19 µM. For the same substance, the “Observed KA” value in assay [2] was determined as 0.05 µM⁻¹. Take “cyclo-(AHPQFPAE)K (AHPQFPAEK; also: cyclic, ring closure not given here)”: the Kd in assay [1] is 0.13 µM. Also, in assay [2], the “Observed KA” value was 7.69 µM⁻¹. “cyclo-(AQYGHFAE)K (AQYGHFAEK; also: cyclic, ring closure not given here)”: the Kd in assay [1] was more than 5000 µM. Besides, the “Observed KA” value in assay [2] is 0.0002 µM⁻¹.

In the case of cyclo-CHPQFC, in assay [1], the equilibrium dissociation constant (Kd) was 0.27 µM. Moreover, the “Observed KA” value in assay [2] was 3.70 µM⁻¹.

As for “cyclo-CHPQGPPC (also: cyclic, closure type not given here)”, the Kd in assay [1] was 0.67 µM. Moreover, the “Observed KA” value in assay [2] came out at 1.49 µM⁻¹.
